What all share (assay): LC-MS of product formed by Pichia cells expressing the enzyme
Assay type in all cases: cell-based

For assay [1], the target named is T1, BBE (EcBBE), berberine bridge enzyme (Eschscholzia californica, UniProt P30986).
T1 construct: gene BBE1; codon-optimized synthetic gene in pPIC3.5/pPIC3.5K; expressed in Pichia pastoris GS115; whole cells
The conditions noted are these: in vivo reaction, BMMY medium pH 6.0, 30 °C, 24 h; racemic substrate; vector control.

The target in assay [2] is T2, CYP719A5 (EcCYP719A5), cheilanthifoline synthase (Eschscholzia californica, UniProt B5UAQ8).
T2 construct: codon-optimized synthetic gene in pPIC3.5/pPIC3.5K; expressed in Pichia pastoris GS115; whole cells, endogenous yeast reductase (no plant CPR)
The conditions noted are these: in vivo reaction, BMMY medium pH 6.0, 30 °C, 24 h; vector control.

Assay [3] concerns the target T3, CYP719A2 (EcCYP719A2), stylopine synthase (Eschscholzia californica, UniProt C3SBS2).
T3 construct: codon-optimized synthetic gene in pPIC3.5/pPIC3.5K; expressed in Pichia pastoris GS115; whole cells, endogenous yeast reductase (no plant CPR)
The conditions noted are these: in vivo reaction, BMMY medium pH 6.0, 30 °C, 24 h; substrate supplied as CYP719A5 reaction product; vector control.

T3 sequence (C3SBS2 entry or part of it): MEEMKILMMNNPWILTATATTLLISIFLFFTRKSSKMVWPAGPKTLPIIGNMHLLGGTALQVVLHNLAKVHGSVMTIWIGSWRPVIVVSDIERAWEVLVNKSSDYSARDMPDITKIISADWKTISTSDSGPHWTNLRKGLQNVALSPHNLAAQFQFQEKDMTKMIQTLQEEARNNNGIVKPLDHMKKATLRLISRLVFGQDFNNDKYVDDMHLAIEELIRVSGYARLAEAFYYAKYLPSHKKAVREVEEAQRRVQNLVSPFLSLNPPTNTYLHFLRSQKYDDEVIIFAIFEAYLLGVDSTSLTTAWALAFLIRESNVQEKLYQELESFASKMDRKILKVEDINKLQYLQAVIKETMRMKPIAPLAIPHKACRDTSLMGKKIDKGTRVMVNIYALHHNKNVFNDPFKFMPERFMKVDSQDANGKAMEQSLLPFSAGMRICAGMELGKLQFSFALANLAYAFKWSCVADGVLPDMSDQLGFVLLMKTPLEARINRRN
T1 sequence (P30986 24-538): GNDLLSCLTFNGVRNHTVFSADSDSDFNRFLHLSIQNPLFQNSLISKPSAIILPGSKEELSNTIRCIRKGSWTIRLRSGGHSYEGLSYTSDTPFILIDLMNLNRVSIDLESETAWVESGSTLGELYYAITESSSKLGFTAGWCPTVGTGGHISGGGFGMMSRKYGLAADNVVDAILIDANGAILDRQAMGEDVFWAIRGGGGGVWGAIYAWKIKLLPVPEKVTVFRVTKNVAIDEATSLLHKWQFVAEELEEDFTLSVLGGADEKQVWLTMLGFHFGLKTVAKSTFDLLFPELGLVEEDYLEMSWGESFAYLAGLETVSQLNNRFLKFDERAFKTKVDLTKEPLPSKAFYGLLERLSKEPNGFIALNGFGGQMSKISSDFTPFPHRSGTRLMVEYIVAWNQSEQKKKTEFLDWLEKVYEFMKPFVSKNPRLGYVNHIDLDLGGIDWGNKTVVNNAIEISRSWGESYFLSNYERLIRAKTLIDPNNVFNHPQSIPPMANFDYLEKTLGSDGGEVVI
T2 sequence (B5UAQ8 whole entry): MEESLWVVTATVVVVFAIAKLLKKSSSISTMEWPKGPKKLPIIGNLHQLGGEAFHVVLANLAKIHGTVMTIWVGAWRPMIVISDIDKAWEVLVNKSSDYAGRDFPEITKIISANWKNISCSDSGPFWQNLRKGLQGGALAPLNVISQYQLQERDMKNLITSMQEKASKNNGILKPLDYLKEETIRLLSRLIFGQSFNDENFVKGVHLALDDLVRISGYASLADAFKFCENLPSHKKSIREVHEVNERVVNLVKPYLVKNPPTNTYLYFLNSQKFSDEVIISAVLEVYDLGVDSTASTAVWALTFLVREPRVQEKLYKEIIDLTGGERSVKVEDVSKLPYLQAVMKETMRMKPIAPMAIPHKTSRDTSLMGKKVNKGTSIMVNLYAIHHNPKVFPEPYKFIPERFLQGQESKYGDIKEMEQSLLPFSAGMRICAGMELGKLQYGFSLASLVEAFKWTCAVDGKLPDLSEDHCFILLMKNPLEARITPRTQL

As to `COc1ccc(CC2c3cc(O)c(OC)cc3CCN2C)cc1O` (racemic) [(R, S)-reticuline], the “LC-MS of product formed by Pichia cells expressing the enzyme” value (“LC-MS of product formed” below) in assay [1] was “reaction products of BBE and CYP719A5 (i.e., scoulerine from reticuline and cheilanthifoline from scoulerine)”.
Take `COc1cc2c(cc1O)[C@@H]1Cc3ccc(OC)c(O)c3CN1CC2` [(S)-scoulerine]: the “LC-MS of product formed” value in assay [2] is reported as “The formation of cheilanthifoline by CYP719A5 from scoulerine was confirmed by the production of stylopine”.
Regarding `COc1cc2c(cc1O)[C@@H]1Cc3ccc4c(c3CN1CC2)OCO4` [cheilanthifoline], the “LC-MS of product formed” value in assay [3] is given as “CYP719A5 reaction product (chielanthifoline) for CYP719A2 reaction”.

The record behind these values is PMC4770593, “Efficient microbial production of stylopine using a Pichia pastoris expression system” (Scientific Reports, 2016).
